Results taken from patent US20170305922A1, “CARM1 INHIBITORS AND USES THEREOF” (Epizyme, Inc., priority 2014, published 2017).

Each compound was assayed against T1, Human CARM1 (PRMT4) (Homo sapiens, UniProt Q86X55) (assay: CARM1 enzyme assay on peptide substrates (3H-SAM Flashplate)). Conditions: Biochemical assay; CARM1 0.25 nM, 3H-SAM 30 nM, peptide 250 nM; read-out: Biochem IC50.
T1 construct: Flag-CARM1-His was eluted with 200 ug/ml FLAG peptide in buffer A; made in house; host or cells: HEK 293F cells infected with recombinant baculovirus (pFastBacMam)
T1 sequence (Q86X55 1-585 isoform Q86X55-1): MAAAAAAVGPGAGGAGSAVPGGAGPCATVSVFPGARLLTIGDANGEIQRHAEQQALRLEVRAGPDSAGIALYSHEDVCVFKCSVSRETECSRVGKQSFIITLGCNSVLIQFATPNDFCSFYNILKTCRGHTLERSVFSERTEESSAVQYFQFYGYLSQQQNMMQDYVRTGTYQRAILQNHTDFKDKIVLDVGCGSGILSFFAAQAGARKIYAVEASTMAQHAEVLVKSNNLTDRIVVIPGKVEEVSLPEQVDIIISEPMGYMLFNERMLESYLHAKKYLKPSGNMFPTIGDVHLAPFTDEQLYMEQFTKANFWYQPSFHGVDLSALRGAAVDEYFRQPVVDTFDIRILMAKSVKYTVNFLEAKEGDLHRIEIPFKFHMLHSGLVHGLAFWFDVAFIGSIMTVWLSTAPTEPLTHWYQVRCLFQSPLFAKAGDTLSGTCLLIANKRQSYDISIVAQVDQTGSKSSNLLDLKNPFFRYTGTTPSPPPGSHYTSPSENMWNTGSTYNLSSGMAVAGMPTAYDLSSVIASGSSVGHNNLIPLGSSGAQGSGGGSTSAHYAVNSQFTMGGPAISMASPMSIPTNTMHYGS

Row | IC50 [nM] | Compound
1 | 11.3 | CNC[C@@H](O)COc1ccc(Cl)c(-c2nc(-c3c(C)noc3C)c(C)c(N3CC4(CCN4CC(F)(F)F)C3)n2)c1 [Example 100]
2 | 4.4 | CCc1cc2c(c(C)n1)CN(c1nc(-c3cc(OC[C@H](O)CNC)ccc3Cl)nc(-c3c(C)noc3C)c1C)C2 [Example 101]
3 | 4.5 | CNC[C@@H](O)COc1ccc(Cl)c(-c2nc(-c3c(C)noc3C)c(C)c(N3Cc4cc(C)nc(C)c4C3)n2)c1 [Example 102]
4 | 8.1 | CNC[C@@H](O)COc1ccc(Cl)c(-c2nc(-c3cnn(C4CC4)c3)c(C)c(-c3c(C)noc3C)n2)c1 [Example 103]
5 | 10.8 | CNC[C@@H](O)COc1ccc(Cl)c(-c2nc(-c3c(C)noc3C)c(C)c(N3C[C@@H]4C[C@H]3CN4C(=O)OC)n2)c1 [Example 104]
6 | 3.2 | CNC[C@@H](O)COc1ccc(Cl)c(-c2nc(-c3c(C)noc3C)c(C)c(N3Cc4cnc(N5CCC5)nc4C3)n2)c1 [Example 105]
7 | 5.5 | CNC[C@@H](O)COc1ccc(Cl)c(-c2nc(-c3c(C)noc3C)c(C)c(N3Cc4cnc(OCCOC)nc4C3)n2)c1 [Example 106]
8 | 11.2 | CNC[C@@H](O)COc1ccc(Cl)c(-c2nc(CCC3CCN(C(=O)OC)CC3)c(C)c(-c3c(C)noc3C)n2)c1 [Example 107]
9 | 18.3 | CNC[C@@H](O)COc1ccc(Cl)c(-c2nc(-c3c(C)noc3C)c(C)c(N3CC4(CCN4CC(F)F)C3)n2)c1 [Example 108]
10 | 6.4 | CNC[C@@H](O)COc1ccc(Cl)c(-c2nc(-c3c(C)noc3C)c(C)c(N3Cc4cnn(CC(=O)N(C)C)c4C3)n2)c1 [Example 109]
11 | 4.8 | CNC[C@@H](O)COc1ccc(Cl)c(-c2nc(-c3c(C)noc3C)c(C)c(N3Cc4cnn(CCOC)c4C3)n2)c1 [Example 110]
12 | 11.2 | CNC[C@@H](O)COc1ccc(Cl)c(-c2nc(-c3c(C)noc3C)c(C)c(N3CC4(CC(S(C)(=O)=O)C4)C3)n2)c1 [Example 111]
13 | 7.2 | CNC[C@@H](O)COc1ccc(Cl)c(-c2nc(-c3c(C)noc3C)c(C)c(N3Cc4cn(CCOC)nc4C3)n2)c1 [Example 112]
14 | 8.8 | CNC[C@@H](O)COc1ccc(Cl)c(-c2nc(-c3c(C)noc3C)c(C)c(N3Cc4cn(CC(=O)N(C)C)nc4C3)n2)c1 [Example 113]
15 | 7.8 | CNC[C@@H](O)COc1ccc(Cl)c(-c2nc(-c3c(C)noc3C)c(C)c(N3Cc4cn(C(CO)CO)nc4C3)n2)c1 [Example 114]
16 | 9.9 | CNC[C@@H](O)COc1ccc(Cl)c(-c2nc(-c3c(C)noc3C)c(C)c(N3Cc4cnn(C(CO)CO)c4C3)n2)c1 [Example 115]
17 | 13.8 | CNC[C@@H](O)COc1ccc(Cl)c(-c2nc(-c3c(C)noc3C)c(C)c(N3CC4(CCN(CC(F)(F)F)C(=O)O4)C3)n2)c1 [Example 116]
18 | 3.9 | CNC[C@@H](O)COc1ccc(Cl)c(-c2nc(-c3c(C)noc3C)c(C)c(N3Cc4cnc(SC)nc4C3)n2)c1 [Example 117]
19 | 9 | CNC[C@@H](O)COc1ccc(Cl)c(-c2nc(-c3cnn(CC(F)(F)F)c3)c(C)c(-c3c(C)noc3C)n2)c1 [Example 118]
20 | 7.6 | CNC[C@@H](O)COc1ccc(Cl)c(-c2nc(-c3cnn(CC(F)F)c3)c(C)c(-c3c(C)noc3C)n2)c1 [Example 119]
21 | 8.8 | CNC[C@@H](O)COc1ccc(Cl)c(-c2nc(-c3c(C)noc3C)c(C)c(N3C[C@@H]4C[C@H]3CN4CC(F)(F)F)n2)c1 [Example 120]
22 | 13.4 | CNC[C@@H](O)COc1ccc(Cl)c(-c2nc(CCC3CN(C(=O)OC)C3)c(C)c(-c3c(C)noc3C)n2)c1 [Example 121]
23 | 13.7 | CNC[C@@H](O)COc1ccc(Cl)c(-c2nc(-c3c(C)noc3C)c(C)c(-n3ncc4c3CN(C(=O)OC)C4)n2)c1 [Example 122]
24 | 3.4 | CNC[C@@H](O)COc1ccc(Cl)c(-c2nc(-c3c(C)noc3C)c(C)c(N3Cc4cccnc4C3C)n2)c1 (stereo partly drawn) [Example 123]

These compounds were tested on asymmetric di-methyl PABP1 in RKO cells (assay: RKO methylation assay: In Cell Western (ICW) for asymmetric di-methyl PABP1 (PABP1me2a)). Conditions: Homo sapiens, RKO, 48 h, Cellular-based (PABP1me2a) ICW (In Cell Western) assay.
Summary of the method: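 In-cell western on compound-exposed RKO cells (48 hours): asymmetric di-methyl PABP1 detected by antibody at 800 nm, DNA content by DRAQ5 at 700 nm. Percent inhibition from signal ratios against DMSO (minimum) and 20 μM reference compound (maximum) wells; IC50 curves fitted from triplicates.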

Row | IC50 [nM] | Compound
25 | 68 | CNC[C@@H](O)COc1ccc(Cl)c(-c2nc(-c3c(C)noc3C)c(C)c(N3CC4(CCN4CC(F)(F)F)C3)n2)c1 [Example 100]
26 | 38 | CCc1cc2c(c(C)n1)CN(c1nc(-c3cc(OC[C@H](O)CNC)ccc3Cl)nc(-c3c(C)noc3C)c1C)C2 [Example 101]
27 | 27 | CNC[C@@H](O)COc1ccc(Cl)c(-c2nc(-c3c(C)noc3C)c(C)c(N3Cc4cc(C)nc(C)c4C3)n2)c1 [Example 102]
28 | 130 | CNC[C@@H](O)COc1ccc(Cl)c(-c2nc(-c3cnn(C4CC4)c3)c(C)c(-c3c(C)noc3C)n2)c1 [Example 103]
29 | 368 | CNC[C@@H](O)COc1ccc(Cl)c(-c2nc(-c3c(C)noc3C)c(C)c(N3C[C@@H]4C[C@H]3CN4C(=O)OC)n2)c1 [Example 104]
30 | 11 | CNC[C@@H](O)COc1ccc(Cl)c(-c2nc(-c3c(C)noc3C)c(C)c(N3Cc4cnc(N5CCC5)nc4C3)n2)c1 [Example 105]
31 | 25 | CNC[C@@H](O)COc1ccc(Cl)c(-c2nc(-c3c(C)noc3C)c(C)c(N3Cc4cnc(OCCOC)nc4C3)n2)c1 [Example 106]
32 | 176 | CNC[C@@H](O)COc1ccc(Cl)c(-c2nc(CCC3CCN(C(=O)OC)CC3)c(C)c(-c3c(C)noc3C)n2)c1 [Example 107]
33 | 164 | CNC[C@@H](O)COc1ccc(Cl)c(-c2nc(-c3c(C)noc3C)c(C)c(N3CC4(CCN4CC(F)F)C3)n2)c1 [Example 108]
34 | 2840 | CNC[C@@H](O)COc1ccc(Cl)c(-c2nc(-c3c(C)noc3C)c(C)c(N3Cc4cnn(CC(=O)N(C)C)c4C3)n2)c1 [Example 109]
35 | 52 | CNC[C@@H](O)COc1ccc(Cl)c(-c2nc(-c3c(C)noc3C)c(C)c(N3Cc4cnn(CCOC)c4C3)n2)c1 [Example 110]
36 | 822 | CNC[C@@H](O)COc1ccc(Cl)c(-c2nc(-c3c(C)noc3C)c(C)c(N3CC4(CC(S(C)(=O)=O)C4)C3)n2)c1 [Example 111]
37 | 66 | CNC[C@@H](O)COc1ccc(Cl)c(-c2nc(-c3c(C)noc3C)c(C)c(N3Cc4cn(CCOC)nc4C3)n2)c1 [Example 112]
38 | 1150 | CNC[C@@H](O)COc1ccc(Cl)c(-c2nc(-c3c(C)noc3C)c(C)c(N3Cc4cn(CC(=O)N(C)C)nc4C3)n2)c1 [Example 113]
39 | 5850 | CNC[C@@H](O)COc1ccc(Cl)c(-c2nc(-c3c(C)noc3C)c(C)c(N3Cc4cn(C(CO)CO)nc4C3)n2)c1 [Example 114]
40 | 9130 | CNC[C@@H](O)COc1ccc(Cl)c(-c2nc(-c3c(C)noc3C)c(C)c(N3Cc4cnn(C(CO)CO)c4C3)n2)c1 [Example 115]
41 | 339 | CNC[C@@H](O)COc1ccc(Cl)c(-c2nc(-c3c(C)noc3C)c(C)c(N3CC4(CCN(CC(F)(F)F)C(=O)O4)C3)n2)c1 [Example 116]
42 | 31 | CNC[C@@H](O)COc1ccc(Cl)c(-c2nc(-c3c(C)noc3C)c(C)c(N3Cc4cnc(SC)nc4C3)n2)c1 [Example 117]
43 | 428 | CNC[C@@H](O)COc1ccc(Cl)c(-c2nc(-c3cnn(CC(F)(F)F)c3)c(C)c(-c3c(C)noc3C)n2)c1 [Example 118]
44 | 340 | CNC[C@@H](O)COc1ccc(Cl)c(-c2nc(-c3cnn(CC(F)F)c3)c(C)c(-c3c(C)noc3C)n2)c1 [Example 119]
45 | 389 | CNC[C@@H](O)COc1ccc(Cl)c(-c2nc(-c3c(C)noc3C)c(C)c(N3C[C@@H]4C[C@H]3CN4CC(F)(F)F)n2)c1 [Example 120]
46 | 257 | CNC[C@@H](O)COc1ccc(Cl)c(-c2nc(CCC3CN(C(=O)OC)C3)c(C)c(-c3c(C)noc3C)n2)c1 [Example 121]
47 | 1810 | CNC[C@@H](O)COc1ccc(Cl)c(-c2nc(-c3c(C)noc3C)c(C)c(-n3ncc4c3CN(C(=O)OC)C4)n2)c1 [Example 122]
48 | 163 | CNC[C@@H](O)COc1ccc(Cl)c(-c2nc(-c3c(C)noc3C)c(C)c(N3Cc4cccnc4C3C)n2)c1 (stereo partly drawn) [Example 123]
